Test results: patent publication US11407715B2, “Substituted indoline derivatives as dengue viral replication inhibitors” (JANSSEN PHARMACEUTICALS, INC., priority 2017, dated 2022)
Like-named read-outs stand apart in the source and are kept apart here.

Key:
[1] = system: DENV-2 16681 strain; experiment: microbe, parasite or virus in culture; assay type: cell-based, Dengue virus; conditions: for EC50: DENV-2 16681 eGFP, Vero cells, MOI 0.5, 3 days; for SI: SI=CC50/EC50, DENV-2 antiviral assay
[2] = system: DENV-1 strain TC974#666; experiment: Tetravalent RT-qPCR assay, serotype 1; assay type: cell-based, Dengue virus; conditions: RT-qPCR serotype 1 TC974#666, Vero cells
Procedure: (§1) The antiviral activity of the compounds of the invention was tested against DENV-1 strain TC974#666 (NCPV), DENV-2 strain 16681, DENV-3 strain H87 (NCPV) and DENV-4 strain H241 (NCPV) in a RT-qPCR assay. Therefore, Vero cells were infected with either DENV-1, or -2, or -3, or -4 in the presence or absence of test compounds. At day 3 post-infection, the cells were lysed and cell lysates were used to prepare cDNA of both a viral target (the 3′UTR of DENV; Table 2) and a cellular reference gene (β-actin, Table 2). Subsequently, a duplex real time PCR was performed on a Lightcycler480 instrument. The generated Cp value is inversely proportional to the amount of RNA expression of these targets. Inhibition of DENV replication by a test compound results in a shift of Cp's for the 3′UTR gene. On the other hand, if a test compound is toxic to the cells, a similar effect on β-actin expression will be observed. The comparative ΔΔCp method is used to calculate ECs50, which is based on the relative gene expression of the target gene (3′UTR) normalized with the cellular housekeeping gene (β-actin). In addition, CC50 values are determined based on the Cp values acquired for the housekeeping gene β-actin.
(§2) The culture medium consisted of minimal essential medium supplemented with 2% of heat-inactivated fetal calf serum, 0.04% gentamycin (50 mg/mL) and 2 mM of L-glutamine. Vero cells, obtained from ECACC, were suspended in culture medium and 75 μL/well was added in 96-well plates (10000 cells/well), which already contain the antiviral compounds. […] In addition, each plate contains wells which are assigned as virus controls (containing cells and virus in the absence of compound) and cell controls (containing cells in the absence of virus and compound). Once the cells were added in the plates, the plates were incubated in a fully humidified incubator (37° C., 5% CO2) until the next day. Dengue viruses serotype-1, 2, 3 and 4 were diluted in order to obtain a Cp of ˜22-24 in the assay. Therefore, 25 μL of virus suspension was added to all the wells containing test compound and to the wells assigned as virus control. In parallel, 25 μL of culture medium was added to the cell controls. Next, the plates were incubated for 3 days in a fully humidified incubator (37° C., 5% CO2). After 3 days, the supernatant was removed from the wells and the cells were washed twice with ice-cold PBS (˜100 μL). The cell pellets within the 96-well plates were stored at −80° C. for at least 1 day. Next, RNA was extracted using the Cells-to-CT™ lysis kit, according to the manufacturer's guideline (Life Technologies). The cell lysates can be stored at −80C or immediately used in the reverse transcription step.
(§3) In preparation of the reverse transcription step, mix A (table 3A) was prepared and 7.57 μL/well was dispensed in a 96-well plate. After addition of 5 μL of the cell lysates, a five minute denaturation step at 75° C. was performed (table 3B). Afterwards, 7.43 μL of mix B was added (table 3C) and the reverse transcription step was initiated (table 3D) to generate cDNA.
(§4) Finally, a RT-qPCR mix was prepared, mix C (table 4A), and 22.02 μL/well was dispensed in 96-well LightCycler qPCR plates to which 3 μL of cDNA was added and the qPCR was performed according to the conditions in table 4B on a LightCycler 480.
(§5) Using the LightCycler software and an in-house LIMS system, dose response curves for each compound were calculated and the half maximal effective concentration (EC50) and the half maximal cytotoxic concentration (CC50) were determined (Tables 5-8).

[3] = system: DENV-2 strain 16681; experiment: Tetravalent RT-qPCR assay, serotype 2; assay type: cell-based, Dengue virus; conditions: RT-qPCR serotype 2 16681, Vero cells
Procedure: as §1, §2, §3, §4, §5

[4] = system: DENV-3 strain H87; experiment: Tetravalent RT-qPCR assay, serotype 3; assay type: cell-based, Dengue virus; conditions: RT-qPCR serotype 3 H87, Vero cells
Procedure: as §1, §2, §3, §4, §5

[5] = system: DENV-4 strain H241; experiment: Tetravalent RT-qPCR assay, serotype 4; assay type: cell-based, Dengue virus; conditions: RT-qPCR serotype 4 H241, Vero cells
Procedure: as §1, §2, §3, §4, §5

[6] = in vitro; conditions: African green monkey
[7] = system: Vero cells; conditions: African green monkey
[8] = system: Vero cells; conditions: African green monkey, 3 days
[9] = in vitro; conditions: African green monkey; remark: listed apart in the source

Row | SMILES | EC50 [1] [nM] | SI [1] | EC50 ([2]; Dengue virus, DENV1, Vero) [nM] | EC50 ([3]; Dengue virus, DENV2, Vero) [nM] | EC50 ([4]; Dengue virus, DENV3, Vero) [nM] | EC50 ([5]; Dengue virus, DENV4, Vero) [nM] | CC50 [6] [nM] | EC50 [2] [nM] | EC50 [3] [nM] | EC50 [4] [nM] | CC50 [7] [nM] | CC50 [8] [nM] | CC50 at 3 days [9] [nM] | EC50 [5] [nM]
1 | COc1cc(CCCCC(=O)O)cc(NC(C(=O)N2CCc3ccc(OC(F)(F)F)cc32)c2ccc(Cl)cc2)c1 (single isomer, unassigned) [Compound 14A] | 0.11 | 151558 | 0.26 | 0.2 | 2.8 | 15 | 16000 |  |  |  |  |  |  | 
2 | COc1cc(NC(C(=O)N2CCc3ccc(OC(F)(F)F)cc32)c2ccc(Cl)cc2)cc(OCC(C)CC(=O)O)c1 (single isomer, unassigned) [Compound 4C] | 0.11 | 121878 |  |  |  | 15 |  | 0.066 | 0.06 | 0.77 | 13000 | > 1000 |  | 
3 | COc1cc(NC(C(=O)N2CCc3ccc(OC(F)(F)F)cc32)c2ccc(Cl)cc2)cc(OCCC(C)(C)C(=O)O)c1 (single isomer, unassigned) [Compound 2A] | 0.38 | 34500 | 0.57 | 0.48 | 6.1 | 27 | 13000 |  |  |  |  |  | > 2500 | 
4 | COc1cc(NC(C(=O)N2CCc3ccc(OC(F)(F)F)cc32)c2ccc(Cl)cc2)cc(OCC2(CC(=O)O)CC2)c1 (single isomer, unassigned) [Compound 5A] | 0.51 | 26300 | 0.58 | 0.42 | 8.1 | 58 | 12000 |  |  |  |  |  |  | 
5 | COc1cc(NC(C(=O)N2CCc3ccc(OC(F)(F)F)cc32)c2ccc(Cl)cc2)cc(OCCC(C)C(=O)O)c1 (single isomer, unassigned) [Compound 1C] | 0.094 | 131193 | 0.23 | 0.18 | 2.4 | 16 | 12000 |  |  |  |  |  |  | 
6 | COc1cc(NC(C(=O)N2CCc3cc(OC)c(C(F)(F)F)cc32)c2ccc(Cl)cc2)cc(OCCC(C)C(=O)O)c1 (single isomer, unassigned) [Compound 20C] | 0.17 | 59500 |  |  |  |  |  | 0.3 | 0.071 | 3.4 | 12000 | > 1000 | > 1000 | 20
7 | COc1cc(NC(C(=O)N2CCc3ccc(OC(F)(F)F)cc32)c2ccc(Cl)cc2)cc(OCCCCC(=O)O)c1 (single isomer, unassigned) [Compound 13B] | 0.13 | 88200 | 0.19 | 0.12 | 1.9 | 15 |  |  |  |  | 12000 |  | > 2500 | 
8 | COc1cc(NC(C(=O)N2CCc3cc(OC)c(C(F)(F)F)cc32)c2ccc(Cl)cc2)cc(OCCC(C)C(=O)O)c1 (single isomer, unassigned) [Compound 20D] | 0.23 | 53400 |  |  |  |  |  | 0.89 | 0.19 | 8.9 | 13000 | > 1000 |  | 55
9 | COc1cc(NC(C(=O)N2CCc3ccc(OC(F)(F)F)cc32)c2ccc(Cl)cc2)cc(OCC2(F)CC2C(=O)O)c1 (centres unmarked) [Compound 29BB] | 0.069 | 124722 |  |  |  |  | 12000 | 0.048 | 0.025 | 0.39 |  |  |  | 2.8
10 | COc1cc(NC(C(=O)N2CCc3cc(OC)c(C(F)(F)F)cc32)c2ccc(Cl)cc2)cc(OC2CC(C(=O)O)C2)c1 (centres unmarked) [Compound 23B] | 0.062 | >88755 | 0.092 | 0.034 | 0.33 | 2.7 |  |  |  |  | 12000 |  |  | 
11 | COc1cc(NC(C(=O)N2CCc3ccc(OC(F)(F)F)cc32)c2ccc(Cl)cc2)cc(OC2CC(C(=O)O)C2)c1 (centres unmarked) [Compound 8B] | 0.023 | >102836 |  |  |  |  |  | 0.032 | 0.025 | 0.16 | 14000 |  |  | 1.3
12 | COc1cc(NC(C(=O)N2CCc3ccc(OC(F)(F)F)cc32)c2ccc(Cl)cc2)cc(OCC2(F)CC2C(=O)O)c1 (centres unmarked) [Compound 28BB] | 0.2 | 70600 |  |  |  |  |  | 0.11 | 0.1 | 1.2 | 12000 | > 1000 |  | 18
13 | COc1cc(NC(C(=O)N2CCc3cc(F)c(OC(F)(F)F)cc32)c2ccc(Cl)cc2)cc(OCC2CC(C(=O)O)C2)c1 (centres unmarked) [Compound 30A] | 0.24 | 47400 |  | 0.076 | 1.9 | 18 | 13000 | 0.094 |  |  |  |  |  | 
